# Values quoted from earlier work, collected in PubChem BioAssay AID1259409 (Chemical Carcinogenesis Research Information System (CCRIS), 2018).
# Tested on: rodent chemically induced tumor inhibition, incidence and multiplicity
# Assay: CCRIS tumor inhibitor studies
# Conditions: Promoter: NONE USED
structure (smiles),measurement,setting,value
CC(C)[C@@H]1CC[C@@H](C)C[C@H]1O,"tumour outcome (control, treated, inhibition, significance)","Carcinogen: AZOXYMETHANE, 25843-45-2, Dose [Inhibitor]: 0, 5 MG/G IN DIET FOR 22 WK BEGINNING 3 D POST LAST CARCINOGEN DOSE (STUDY DURATION: 25 WK), Route [Inhibitor]: ORAL, Species: RAT, Strain/Sex: F344/MALE, Target Tissue: Type of Lesion: DUODENUM: ADENOCARCINOMA, Dose [Carcinogen]: 15 MG/KG BW 2/WK FOR 3 WK","50%, 42%, 16%, not significant"
same,"tumour outcome (control, treated, inhibition, significance)","Carcinogen: AZOXYMETHANE, 25843-45-2, Dose [Inhibitor]: 0, 5 MG/G IN DIET FOR 22 WK BEGINNING 3 D POST LAST CARCINOGEN DOSE (STUDY DURATION: 25 WK), Route [Inhibitor]: ORAL, Species: RAT, Strain/Sex: F344/MALE, Target Tissue: Type of Lesion: LARGE BOWEL: ADENOMATOUS POLYP, Dose [Carcinogen]: 15 MG/KG BW 2/WK FOR 3 WK","82%, 88%, -7%, not significant"
O=CCc1c[nH]c2ccccc12,"tumour outcome (control, treated, inhibition, significance)","Carcinogen: 7,12-DIMETHYLBENZ[A]ANTHRACENE, 57-97-6, Dose [Inhibitor]: 0.1 MMOL IN 1 ML DIMETHYL SULFOXIDE ONCE 20 HR PRIOR TO CARCINOGEN ADMINISTRATION FOLLOWED BY A 14 WK OBSERVATION PERIOD, Route [Inhibitor]: GAVAGE, Species: RAT, Strain/Sex: SPRAGUE-DAWLEY/FEMALE, Target Tissue: Type of Lesion: MAMMARY GLAND: TUMOR, Dose [Carcinogen]: 12 MG IN 1 ML OLIVE OIL ONCE","64%, 36%, 44%, not significant"
[Cl][Cd][Cl],"tumour outcome (control, treated, inhibition, significance)","Carcinogen: DIETHYLNITROSAMINE, 55-18-5, Dose [Inhibitor]: 0, 500 PPM IN DRINKING WATER BEGINNING 2 WK POST CARCINOGEN DOSE AND CONTINUING FOR DURATION OF STUDY (STUDY DURATION: 5, Route [Inhibitor]: ORAL, Species: MOUSE, Strain/Sex: B6C3F1/MALE, Target Tissue: Type of Lesion: LIVER: TUMOR, Dose [Carcinogen]: 90 MG/KG IN TRICAPRYLIN (5 MG/ML) ONCE","13/45 (29%), 3/42 (7%), 76%, p<0.05"
same,"tumour outcome (control, treated, inhibition, significance)","Carcinogen: DIETHYLNITROSAMINE, 55-18-5, Dose [Inhibitor]: 0, 500 PPM IN DRINKING WATER BEGINNING 2 WK POST CARCINOGEN DOSE AND CONTINUING FOR DURATION OF STUDY (STUDY DURATION: 5, Route [Inhibitor]: ORAL, Species: MOUSE, Strain/Sex: B6C3F1/MALE, Target Tissue: Type of Lesion: LUNG: TUMOR, Dose [Carcinogen]: 90 MG/KG IN TRICAPRYLIN (5 MG/ML) ONCE","15/45 (33%), 11/42 (26%), 21%, not calculated"
same,"tumour outcome (control, treated, inhibition, significance)","Carcinogen: DIETHYLNITROSAMINE, 55-18-5, Dose [Inhibitor]: 0, 1000 PPM IN DRINKING WATER BEGINNING 2 WK POST CARCINOGEN DOSE AND CONTINUING FOR DURATION OF STUDY (STUDY DURATION:, Route [Inhibitor]: ORAL, Species: MOUSE, Strain/Sex: B6C3F1/MALE, Target Tissue: Type of Lesion: LIVER: TUMOR, Dose [Carcinogen]: 90 MG/KG IN TRICAPRYLIN (5 MG/ML) ONCE","13/45 (29%), 0/47 (0%), 100%, p<0.05"
same,"tumour outcome (control, treated, inhibition, significance)","Carcinogen: DIETHYLNITROSAMINE, 55-18-5, Dose [Inhibitor]: 0, 1000 PPM IN DRINKING WATER BEGINNING 2 WK POST CARCINOGEN DOSE AND CONTINUING FOR DURATION OF STUDY (STUDY DURATION:, Route [Inhibitor]: ORAL, Species: MOUSE, Strain/Sex: B6C3F1/MALE, Target Tissue: Type of Lesion: LUNG: TUMOR, Dose [Carcinogen]: 90 MG/KG IN TRICAPRYLIN (5 MG/ML) ONCE","15/45 (33%), 1/47 (2%), 94%, p<0.05"
